Measurements taken from the NIST ThermoML archive (doi:10.1016/j.jct.2018.10.015).

Experiment: xn = mol fraction of the nth substance listed
Conditions: 101.3 kPa, Liquid; for viscosity: Concentric cylinders viscometry; for mass density: Vibrating tube method

CCCCn1cc[n+](C)c1C.O=S(=O)([N-]S(=O)(=O)C(F)(F)F)C(F)(F)F + CCOC(=O)OCC
Conditions | mass density, 313.15 K [kg/m3] | mass density, 318.15 K [kg/m3] | mass density, 323.15 K [kg/m3] | mass density, 328.15 K [kg/m3] | viscosity, 313.15 K [mPa·s] | viscosity, 318.15 K [mPa·s] | viscosity, 323.15 K [mPa·s] | viscosity, 328.15 K [mPa·s]
x1 = 0.0996 | 1056.8 | 1051.4 | 1046 | 1040.5 | 1.565 | 1.456 | 1.359 | 1.271
x1 = 0.199 | 1135.4 | 1130.3 | 1125.1 | 1119.8 | 2.708 | 2.472 | 2.268 | 2.09
x1 = 0.299 | 1196.3 | 1191.3 | 1186.3 | 1181.2 | 4.682 | 4.215 | 3.816 | 3.473
x1 = 0.3982 | 1244.2 | 1239.3 | 1234.4 | 1229.5 | 7.39 | 6.543 | 5.835 | 5.245
x1 = 0.4985 | 1283.2 | 1278.4 | 1273.6 | 1268.7 | 11.12 | 9.697 | 8.523 | 7.565
x1 = 0.5979 | 1315.5 | 1310.8 | 1306 | 1301.3 | 16.03 | 13.78 | 11.95 | 10.47
x1 = 0.698 | 1342.9 | 1338.2 | 1333.6 | 1328.8 | 22.31 | 18.9 | 16.18 | 14.02
x1 = 0.8 | 1366.8 | 1362.1 | 1357.5 | 1352.8 | 30.21 | 25.27 | 21.39 | 18.35
x1 = 0.9012 | 1387.2 | 1382.6 | 1378 | 1373.4 | 39.65 | 32.78 | 27.46 | 23.33
x1 = 1 | 1404.8 | 1400.2 | 1395.6 | 1391 | 50.56 | 41.38 | 34.32 | 28.91
